The target of experiment [1] is T1, recombinant human liver GK (GST-hGK2) (Homo sapiens, UniProt P35557).
T1 construct: cloning of ORF (open reading frame) was carried out by the following procedure based on AK122876.1; made in house; host or cells: E. coli
T1 sequence (P35557 1-466 isoform P35557-2): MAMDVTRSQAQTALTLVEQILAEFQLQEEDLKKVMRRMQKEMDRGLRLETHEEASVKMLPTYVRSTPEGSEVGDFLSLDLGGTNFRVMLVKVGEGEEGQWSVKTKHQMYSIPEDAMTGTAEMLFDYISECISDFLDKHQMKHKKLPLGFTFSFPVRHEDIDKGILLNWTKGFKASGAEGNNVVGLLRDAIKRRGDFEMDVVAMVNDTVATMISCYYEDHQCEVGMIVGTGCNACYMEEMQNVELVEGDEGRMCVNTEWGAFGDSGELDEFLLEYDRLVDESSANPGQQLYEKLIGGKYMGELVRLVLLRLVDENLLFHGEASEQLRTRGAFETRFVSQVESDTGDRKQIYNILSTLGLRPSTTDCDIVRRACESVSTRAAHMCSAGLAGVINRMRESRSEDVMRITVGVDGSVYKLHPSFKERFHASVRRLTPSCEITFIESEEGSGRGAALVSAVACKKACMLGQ
Put plainly: Measurement of GK activation. It counts as biochemical. Conditions: 10 min; 10 μM test agent, 5 mM glucose, increase of absorbance (340 nm) in first 10 minutes relative to DMSO control. The method, then: Measurement of the GK activation by test agents was carried out in accordance with the method described in Science 301: 370-373, 2003, and by partially modifying this. The GK activity was measured as a change in absorbance based on the amount of NADPH which is converted from NADP (nicotinamide adenine dinucleotide phosphate) when glucose 6-phosphate produced by GK using glucose as the substrate is […] glucose-6-phosphate dehydrogenase.
Regarding the recombinant human liver GK (GST-hGK2) to be used in this assay, it was used by expressing as GST (glutathione S transferase)-fusion protein in E. coli and purifying by a Glutathione Sepharose column.
Regarding the sequence of glucokinase isoform 2, cloning of ORF (open reading frame) was carried out by the following procedure based on AK122876.1 (accession number). Using pME18S-FL3-Glucokinase isoform 2 as the template, PCR (polymerase chain reaction) was carried out using 5′-[…]-3′(SEQ ID NO:1) as the 5′ primer and 5′-[…]-3′ (SEQ ID NO:2) as the 3′ primer, and the PCR product was TA-cloned into pGEM-T easy vector. The sequence of this clone was confirmed by carrying out its sequencing. Thereafter, a fragment digested with EcoRI and XhoI was ligated to a vector pGEX-5X-1 digested in the same manner to prepare pGEX-human Glucokinase 2.
Regarding the enzyme reaction, the measurement was carried out at 27° C. using a 96 well flat bottom plate. As the enzyme mixed liquid, 25 mM HEPES pH 7.4; 25 mM KCl; 2 mM MgCl2; 1 mM ATP; 0.1% BSA; 1 mM DTT; 0.8 mM NADP; 2.5 U/ml glucose-6-phosphate dehydrogenase; GST-hGK2 (all in final concentration, however, the amount of GST-hGK2 was adjusted in such a manner that increase of absorbance of the DMSO control in 10 minutes (ΔOD) becomes about 0.12) was prepared. The enzyme mixed liquid was dispensed in 89 μl portions into the aforementioned plate, and a test agent dissolved in DMSO or the DMSO control was added thereto in 1 μl portions. Subsequently, glucose (5 mM in final concentration) was added as the substrate solution in 10 μl portions and the reaction was started at 27° C.
After commencement of the reaction, the absorbance was measured at a wavelength of 340 nm for 15 minutes at intervals of about 30 seconds, and the GK activation of each compound was calculated from the increase of absorbance during the first 10 minutes (ΔOD). Index of the GK activation of each test agent was calculated from the following formula as the GK activation (%).
GK activation (%)=[(ΔODTest)−(ΔODCont)]/(ΔODCont)×100
ΔODTest: ΔOD at 10 μM test agent
ΔODCont: ΔOD of DMSO control

The test system of experiment [2] is db/db (C57BL/KsJ-db/db) mice. Put plainly: Action upon high blood glucose level after oral glucose loading in db/db mice. It counts as in vivo. Conditions: 10 mg/kg oral, fasted db/db mice, from administration until 2 hours after oral glucose loading (2 g/kg). Here is the method:
After overnight fasting, body weights of db/db (C57BL/KsJ-db/db) mice (N=5) were measured. Each test compound was dissolved in Cremophor solvent (Cremophor:DMSO:Water 5:5:90, v/v/v) to a concentration of 1 mg/ml. To each db/db mouse was orally administered 10 ml/kg of the agent liquid (corresponds to the test compound of 10 mg/kg) or 10 ml/kg of the solvent control. Just before the administration of the test compound, about 60 μl of blood was collected from the venous plexus of the fundus of the eye using a capillary. After 30 minutes of the administration of the GK activator, 200 mg/ml of glucose aqueous solution was orally administered at a dose of 10 ml/kg (corresponds to 2 g/kg). Just before the administration of glucose, about 60 μl of blood was collected from the venous plexus of the fundus of the eye using a capillary. Blood was collected in the same manner after 0.5, 1 and 2 hours of the glucose administration. Blood plasma was separated from the thus collected blood to measure the blood glucose level. AUC of the blood glucose level after the administration of the test compound until 2 hours after the glucose loading was compared with AUC of the solvent control group within the same period of time.

The next experiment relates to ICR mice. Put plainly: Action upon high blood glucose level after oral glucose loading in ICR mice. It counts as in vivo. Particulars: 3 mg/kg oral, fasted ICR mice, AUC of blood glucose from administration until 2 hours after oral glucose loading (2 g/kg) vs solvent control. Here is the method:
After overnight fasting, body weights of ICR mice (N=5) were measured. Each test compound was dissolved in Cremophor solvent (Cremophor:DMSO:Water 5:5:90, v/v/v) to a concentration of 0.3 mg/ml. To each mouse was orally administered 10 ml/kg of the agent liquid (corresponds to the test compound of 3 mg/kg) or 10 ml/kg of the solvent control. Just before the administration of the test compound, about 60 μl of blood was collected from the venous plexus of the fundus of the eye using a capillary. After 30 minutes of the administration of the test compound, 200 mg/ml of glucose aqueous solution was orally administered at a dose of 10 ml/kg (corresponds to 2 g/kg). Just before the administration of glucose, about 60 μl of blood was collected from the venous plexus of the fundus of the eye using a capillary. Blood was collected in the same manner after 0.5, 1 and 2 hours of the glucose administration. Blood plasma was separated from the thus collected blood to measure the blood glucose level. AUC of the blood glucose level after the administration of the test compound until 2 hours after the glucose loading was compared with AUC of the solvent control group within the same period of time.

Regarding `O=C(Nc1nc(C(O)CO)cs1)/C(=C/C1CCCC1)c1ccc(S(=O)(=O)C2CC2)cc1` (stereo not drawn) [Ex 45, (2E)-3-cyclopentyl-2-[4-(cyclopropylsulfonyl)phenyl]-N-[4-(1,2-dihydroxyethyl)-1,3-thiazol-2-yl]acrylamide], in experiment [1], the activation at 10 µM was 249%. The “AUC of the blood glucose level lowered in comparison with AUC of the solvent control group” value in experiment [2] was 39%. Besides, the “Blood glucose lowering ratio (%)” value in the experiment on ICR mice is reported as 23%.

The record behind these values is patent US20090281142A1, “THIAZOLE DERIVATIVE” (ASTELLAS PHARMA INC., priority 2005, published 2009).
